Marks after values point to notes of the source that are not given here.
Tests used:
Type in all cases: in vivo
[1] = system: Puccinia recondita f. sp. tritici; experiment: Test A: wheat leaf rust, preventive spray on wheat seedlings, visual disease rating
Text: (§1) General protocol for preparing test suspensions for Tests A-E: the test compounds were first dissolved in acetone in an amount equal to 3% of the final volume and then suspended at the desired concentration (in ppm) in acetone and purified water (50/50 mix by volume) containing 250 ppm of the surfactant Trem® 014 (polyhydric alcohol esters). The resulting test suspensions were then used in Tests A-E. Spraying a 200 ppm test suspension to the point of run-off on the test plants was the equivalent of a rate of 800 g/ha.
The test suspension was sprayed to the point of run-off on wheat seedlings. The following day the seedlings were inoculated with a spore suspension of Puccinia recondita f. sp. tritici (the causal agent of wheat leaf rust) and incubated in a saturated atmosphere at 20° C. for 24 h, and then moved to a growth chamber at 20° C. for 7 days, after which time visual disease ratings were made.
(§2) Results for Tests A-E are given in Table A. In the Table, a rating of 100 indicates 100% disease control and a rating of 0 indicates no disease control (relative to the controls). A dash (-) indicates no test results. All results are for 200 ppm except where followed by an asterisk “*” which indicates a 250 ppm test suspension was used or a double asterisk “**” which indicates a 50 ppm test suspension was used.

[2] = system: Septoria tritici; experiment: Test B: wheat leaf blotch, preventive spray on wheat seedlings, visual disease rating
Text: as §1
The test suspension was sprayed to the point of run-off on wheat seedlings. The following day the seedlings were inoculated with a spore suspension of Septoria tritici (the causal agent of wheat leaf blotch) and incubated in a saturated atmosphere at 24° C. for 48 h, and then moved to a growth chamber at 20° C. for 19 days, after which time visual disease ratings were made.
as §2

[3] = system: Blumeria graminis f sp. tritici; experiment: Test D: wheat powdery mildew, preventive spray on wheat seedlings, visual disease rating
Text: as §1
The test suspension was sprayed to the point of run-off on wheat seedlings. The following day the seedlings were inoculated with a spore dust of Blumeria graminis f sp. tritici, (also known as Erysiphe graminis f sp. tritici, the causal agent of wheat powdery mildew) and incubated in a growth chamber at 20° C. for 8 days, after which time visual disease ratings were made.
as §2

[4] = system: Botrytis cinerea; experiment: Test C: tomato Botrytis, preventive spray on tomato seedlings, visual disease rating
Text: as §1
The test suspension was sprayed to the point of run-off on tomato seedlings. The following day the seedlings were inoculated with a spore suspension of Botrytis cinerea (the causal agent of tomato Botrytis) and incubated in a saturated atmosphere at 20° C. for 48 h, and then moved to a growth chamber at 24° C. for 3 days, after which time visual disease ratings were made.
as §2

[5] = 200 ppm test suspension, 100 = 100% disease control, 0 = no control

Compound | Test C disease control rating ([4]; 250 ppm test suspension (*)) | Test A disease control rating ([1]; 250 ppm test suspension (*)) | Test B disease control rating ([2]; 250 ppm test suspension (*)) | Test D disease control rating ([3]; 250 ppm test suspension (*)) | further results
CCCCC(CC)c1c(C)nn(C)c1Nc1ccc(F)cc1Cl (stereo not shown) [Compound 3] | – | – | – | – | Test A disease control rating [1, 5]: 9%; Test B disease control rating ([2]; 200 ppm test suspension): 0%; Test D disease control rating ([3]; 200 ppm test suspension): 0%
Cn1nc(Br)c(C2OCCCO2)c1C(O)c1ccc(F)cc1Cl (stereo not shown) [Compound 8] | 0* % | 0* % | 5* % | 72* % | –
Cn1nc(Br)c(C2OCCCO2)c1C(O)c1ccc(F)cc1Br (stereo not shown) [Compound 9] | 0* % | 0* % | 0* % | 64* % | –
Cn1nc(Br)c(C2OCCCO2)c1C(O)c1ccc(F)cc1F (stereo not shown) [Compound 10] | 0* % | 0* % | 0* % | 90* % | –
Cc1nn(C)c(C(O)c2ccc(F)cc2F)c1C1CCCCC1 (stereo not drawn) [Compound 12, 4-cyclohexyl-α-(2,4-difluorophenyl)-1,3-dimethyl-1H-pyrazole-5-methanol] | 61* % | 94* % | 100* % | 97* % | –
Cc1nn(C)c(Nc2ccc(F)cc2F)c1C1=CCC(C#N)CC1 (stereo not shown) [Compound 18] | 73* % | 19* % | 79* % | 0* % | –
Cc1nn(C)c(Nc2ccc(F)cc2F)c1C1CCC(C)(C)CC1 [Compound 19] | 0* % | 0* % | 1* % | 96* % | –
Cc1nn(C)c(Nc2ccc(F)cc2Cl)c1C1=CCOCC1 [Compound 21] | 42* % | 0* % | 17* % | 13* % | –
Cc1nn(C)c(Nc2c(F)cc(Cl)cc2F)c1C1=CCCCC1C (stereo not shown) [Compound 22] | – | – | – | – | Test C disease control rating ([4]; 200 ppm test suspension): 99%; Test A disease control rating [1, 5]: 68%; Test D disease control rating ([3]; 200 ppm test suspension): 56%
CCC(C)c1c(C)nn(C)c1Nc1c(F)cc(Cl)cc1F (stereo not shown) [Compound 23, N-(4-chloro-2,6-difluorophenyl)-1,3-dimethyl-4-(1-methylpropyl)-1H-pyrazol-5-amine] | – | – | – | – | Test C disease control rating ([4]; 200 ppm test suspension): 98%; Test A disease control rating [1, 5]: 68%; Test D disease control rating ([3]; 200 ppm test suspension): 95%
CC=C(C)c1c(C)nn(C)c1Nc1c(F)cc(Cl)cc1F [Compound 24, N-(4-chloro-2,6-difluorophenyl)-1,3-dimethyl-4-(1-methyl-1-propen-1-yl)-1H-pyrazol-5-amine] | – | – | – | – | Test C disease control rating ([4]; 200 ppm test suspension): 85%; Test A disease control rating [1, 5]: 94%; Test B disease control rating ([2]; 200 ppm test suspension): 96%; Test D disease control rating ([3]; 200 ppm test suspension): 100%
CCC(OC)c1c(C)nn(C)c1Oc1c(F)cccc1F (stereo not shown) [Compound 25] | 0* % | 99* % | 6* % | 0* % | –
CCON=C(C)c1c(C)nn(C)c1Nc1ccc(F)cc1Cl [Compound 26] | 0* % | 0* % | 33* % | 0* % | –
CCCON=C(C)c1c(C)nn(C)c1Nc1ccc(F)cc1Cl [Compound 27] | 0* % | 9* % | 17* % | 69* % | –
CC(=NOC(C)C)c1c(C)nn(C)c1Nc1ccc(F)cc1Cl [Compound 28] | 0* % | 32* % | 24* % | 0* % | –
CCON=C(C)c1c(C)nn(C)c1N(CC)c1ccc(F)cc1Cl [Compound 29] | 0* % | 55* % | 14* % | 0* % | –
CON=C(C)c1c(C)nn(C)c1Nc1ccc(F)cc1Cl [Compound 30] | 0* % | 80* % | 14* % | 0* % | –
CC(=CC(C)C)c1c(C)nn(C)c1Nc1ccc(F)cc1Cl [Compound 31] | 0* % | 55* % | 6* % | 48* % | –
CC(=O)c1c(C)nn(C)c1Nc1ccc(F)cc1Cl [Compound 32] | 56* % | 19* % | – | 0* % | –
CON=C(C)c1c(C)nn(C)c1N(C)c1ccc(F)cc1Cl [Compound 33] | – | – | – | – | Test C disease control rating ([4]; 50 ppm test suspension (**)): 7** %; Test A disease control rating ([1]; 50 ppm test suspension (**)): 17** %; Test B disease control rating ([2]; 50 ppm test suspension (**)): 0** %; Test D disease control rating ([3]; 50 ppm test suspension (**)): 0** %
C=Cc1c(C)nn(C)c1Oc1ccc(F)cc1Cl [Compound 35] | 0* % | 8* % | 0* % | 26* % | –
Cc1nn(C)c(Oc2ccc(F)cc2Cl)c1C1OCCCO1 [Compound 37] | 0* % | 52* % | 5* % | 63* % | –
Cc1nn(C)c(Oc2ccc(F)cc2Cl)c1C1OCC(C)(C)CO1 [Compound 38] | 0* % | 52* % | 93* % | 94* % | –
C=C(C)c1c(C)nn(C)c1Oc1ccc(F)cc1Cl [Compound 39] | 0* % | 15* % | 0* % | 13* % | –
CC1=NOC(c2c(C)nn(C)c2Oc2ccc(F)cc2Cl)C1 (stereo not shown) [Compound 40] | 33* % | 30* % | 36* % | 81* % | –
Cc1nn(C)c(Oc2ccc(F)cc2Cl)c1C(C)O (stereo not shown) [Compound 41] | 0* % | 0* % | 0* % | 46* % | –
Cc1nn(C)c(Oc2ccc(F)cc2Cl)c1C=NO [Compound 42] | 7* % | 9* % | 0* % | 81* % | –
Cc1nn(C)c(Oc2ccc(F)cc2Cl)c1C1=NOC(C)(C)C1 [Compound 53] | 0* % | 0* % | 2* % | 90* % | –
Cc1nn(C)c(Oc2ccc(F)cc2Cl)c1C1=NOC(C#N)C1 (stereo not shown) [Compound 55] | 0* % | 0* % | 0* % | 73* % | –

From patent publication US20180042234A1, “FUNGICIDAL PYRAZOLES” (E I DU PONT DE NEMOURS AND COMPANY, priority 2015, published 2018)
